Usually GI50 stands for the concentration giving 50% growth inhibition. As usually defined, the Inhibition is the percentage by which the read-out fell short of the control.

Holding throughout (assay type): functional
The test system of one experiment is DLD-1. The experiment in a line: Growth inhibitory activity against DLD-1 cells done for 48 h at 37 degree C with compound. Conditions: Homo sapiens, DLD-1, 48 h.
The subject of the next experiment is T47D. The experiment in a line: Growth inhibitory activity aganist T47D cells done for 48 hr at 37 degree C with compound. Conditions: Homo sapiens.
Another experiment relates to NCI-H1299. The experiment in a line: Growth inhibitory activity against H1299 cells done for 48 h at 37 degree C with compound. Conditions: Homo sapiens, NCI-H1299, 48 h.
The species entered for the next experiment is Mus musculus. The experiment in a line: Inhibition of tumor growth in mice with MX-1 tumor after treatment in combination with paclitaxel.

Consider `Clc1ccc(-c2noc(-c3occc3Br)n2)cc1`, for which the results for the GI50 with DLD-1, in the experiment with T47D and in the experiment with NCI-H1299 were 0.51 µM, 0.12 µM and > 10 µM, respectively.

In the case of `FC(F)(F)c1ccc(-c2noc(-c3sccc3Cl)n2)nc1`, the GI50 in the experiment on DLD-1 was 0.93 µM; in the experiment on T47D, 0.35 µM; with NCI-H1299, > 10 µM.

`FC(F)(F)c1ccc(-c2noc(-c3occc3Br)n2)cc1`: the GI50 in the experiment on DLD-1 is 0.13 µM; in the experiment with T47D, 0.32 µM; in the experiment on NCI-H1299 it was > 10 µM.

For `Cc1ccc(-c2noc(-c3sccc3Cl)n2)cc1`, the results for the GI50 with DLD-1, in the experiment on T47D and in the experiment on NCI-H1299 were 0.85 µM, 2.2 µM and > 10 µM, respectively.

Regarding `FC(F)(F)c1ccc(-c2noc(-c3sccc3Cl)n2)cc1`, the values for the GI50 with DLD-1, with T47D and with NCI-H1299 were 0.77 µM, 0.22 µM and > 10 µM, respectively.

As for `Clc1ccc(-c2noc(-c3sccc3Cl)n2)cc1`, the values for the GI50 in the experiment with DLD-1, with T47D and with NCI-H1299 were 0.4 µM, 0.19 µM and > 10 µM, respectively.

Turning to `FC(F)(F)c1ccc(-c2noc(-c3occc3Cl)n2)cc1`, the GI50 is 0.35 µM in the experiment on DLD-1, 0.17 µM in the experiment with T47D and > 10 µM in the experiment on NCI-H1299.

With `Clc1ccc(-c2noc(-c3sccc3Br)n2)cc1`, the GI50 in the experiment on DLD-1 was 0.58 µM; in the experiment with T47D, 0.57 µM; in the experiment with NCI-H1299 it was > 10 µM.

For `COc1ccc(-c2noc(-c3sccc3Cl)n2)cc1`, the figures for the GI50 with DLD-1, in the experiment with T47D and with NCI-H1299 were 0.93 µM, 0.52 µM and > 10 µM, respectively.

In the case of `Clc1ccc(-c2noc(-c3occc3Cl)n2)cc1`, the GI50 in the experiment with DLD-1 is 0.51 µM; with T47D it was 0.12 µM; in the experiment with NCI-H1299, > 10 µM. The Inhibition in the experiment listed under Mus musculus is reported as 83%.

Regarding `Clc1ccc(-c2noc(-c3occc3Br)n2)nc1`, the GI50 in the experiment on DLD-1 is 0.43 µM; in the experiment with T47D it was 0.38 µM; in the experiment with NCI-H1299, > 10 µM.

For `Clc1ccc(-c2noc(-c3sccc3Cl)n2)nc1`, the GI50 in the experiment with DLD-1 is 0.8 µM; in the experiment on T47D, 0.2 µM; with NCI-H1299, > 10 µM.

In the case of `Clc1ccc(-c2noc(-c3occc3Cl)n2)nc1`, the GI50 in the experiment with DLD-1 was 0.6 µM; with T47D, 13 µM; in the experiment with NCI-H1299 it was > 10 µM.
